Measured values from ChEMBL document CHEMBL2010727, “A novel series of benzimidazole NR2B-selective NMDA receptor antagonists” (Bioorg Med Chem Lett, 2012).
Calls of active or inactive are those of the source. The calls are words filed in the database; no cut-off is given here.

Columns and labels:
Liver microsomes = experiment: Intrinsic clearance in human liver microsomes; type: ADME, Microsome
Cytochrome P450 2D6 = Cytochrome P450 2D6 (Homo sapiens, UniProt P10635); experiment: Inhibition of CYP2D6; type: ADME
Chain of Cytochrome P450 2D6 (P10635 whole entry): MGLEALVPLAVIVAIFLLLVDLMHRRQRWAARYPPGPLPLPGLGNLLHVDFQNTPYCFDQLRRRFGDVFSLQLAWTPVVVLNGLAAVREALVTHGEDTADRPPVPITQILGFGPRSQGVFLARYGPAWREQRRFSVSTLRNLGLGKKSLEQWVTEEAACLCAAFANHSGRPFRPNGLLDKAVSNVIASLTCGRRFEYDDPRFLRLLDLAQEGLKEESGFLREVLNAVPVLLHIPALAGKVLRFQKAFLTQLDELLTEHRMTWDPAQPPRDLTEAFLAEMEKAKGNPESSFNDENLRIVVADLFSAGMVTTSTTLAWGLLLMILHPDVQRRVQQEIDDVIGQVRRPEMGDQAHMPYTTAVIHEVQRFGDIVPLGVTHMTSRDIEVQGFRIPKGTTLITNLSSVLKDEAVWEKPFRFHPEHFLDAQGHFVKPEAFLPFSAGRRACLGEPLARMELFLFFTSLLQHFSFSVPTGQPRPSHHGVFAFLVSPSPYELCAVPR

Cytochrome P450 1A2 = target: T1, Cytochrome P450 1A2 (Homo sapiens, UniProt P05177); experiment: Inhibition of CYP1A2; type: ADME
T1 sequence (P05177 whole entry): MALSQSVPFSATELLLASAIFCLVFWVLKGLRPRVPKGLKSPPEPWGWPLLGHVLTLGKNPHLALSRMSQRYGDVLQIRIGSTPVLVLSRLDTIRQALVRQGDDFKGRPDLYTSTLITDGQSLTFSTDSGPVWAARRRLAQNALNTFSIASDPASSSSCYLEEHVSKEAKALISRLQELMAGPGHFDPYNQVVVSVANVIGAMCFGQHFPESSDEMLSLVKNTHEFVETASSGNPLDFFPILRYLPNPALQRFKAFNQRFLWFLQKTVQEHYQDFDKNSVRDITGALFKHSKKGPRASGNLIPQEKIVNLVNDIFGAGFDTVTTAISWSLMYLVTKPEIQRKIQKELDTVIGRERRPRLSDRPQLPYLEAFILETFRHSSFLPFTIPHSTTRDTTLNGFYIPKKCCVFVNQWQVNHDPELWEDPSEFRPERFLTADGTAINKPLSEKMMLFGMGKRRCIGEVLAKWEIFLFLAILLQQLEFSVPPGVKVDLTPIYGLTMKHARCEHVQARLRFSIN

Cytochrome P450 2C9 = Cytochrome P450 2C9 (Homo sapiens, UniProt P11712); experiment: Inhibition of CYP2C9; type: ADME
Chain of Cytochrome P450 2C9 (P11712 whole entry): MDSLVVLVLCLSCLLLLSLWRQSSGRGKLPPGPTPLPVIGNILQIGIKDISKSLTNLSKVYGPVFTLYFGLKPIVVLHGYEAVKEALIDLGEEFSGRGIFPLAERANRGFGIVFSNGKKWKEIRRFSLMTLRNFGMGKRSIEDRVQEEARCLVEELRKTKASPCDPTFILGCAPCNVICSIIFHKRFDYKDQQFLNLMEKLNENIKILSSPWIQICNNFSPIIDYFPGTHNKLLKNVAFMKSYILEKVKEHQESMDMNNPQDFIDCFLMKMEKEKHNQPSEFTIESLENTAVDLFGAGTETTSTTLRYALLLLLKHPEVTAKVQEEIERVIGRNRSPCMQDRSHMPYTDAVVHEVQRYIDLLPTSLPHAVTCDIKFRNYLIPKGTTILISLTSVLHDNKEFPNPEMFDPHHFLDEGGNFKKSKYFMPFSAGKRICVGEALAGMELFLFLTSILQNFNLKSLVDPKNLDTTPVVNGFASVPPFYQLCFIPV

Cytochrome P450 2C19 = Cytochrome P450 2C19 (Homo sapiens, UniProt P33261); experiment: Inhibition of CYP2C19; type: ADME
Chain of Cytochrome P450 2C19 (P33261 whole entry): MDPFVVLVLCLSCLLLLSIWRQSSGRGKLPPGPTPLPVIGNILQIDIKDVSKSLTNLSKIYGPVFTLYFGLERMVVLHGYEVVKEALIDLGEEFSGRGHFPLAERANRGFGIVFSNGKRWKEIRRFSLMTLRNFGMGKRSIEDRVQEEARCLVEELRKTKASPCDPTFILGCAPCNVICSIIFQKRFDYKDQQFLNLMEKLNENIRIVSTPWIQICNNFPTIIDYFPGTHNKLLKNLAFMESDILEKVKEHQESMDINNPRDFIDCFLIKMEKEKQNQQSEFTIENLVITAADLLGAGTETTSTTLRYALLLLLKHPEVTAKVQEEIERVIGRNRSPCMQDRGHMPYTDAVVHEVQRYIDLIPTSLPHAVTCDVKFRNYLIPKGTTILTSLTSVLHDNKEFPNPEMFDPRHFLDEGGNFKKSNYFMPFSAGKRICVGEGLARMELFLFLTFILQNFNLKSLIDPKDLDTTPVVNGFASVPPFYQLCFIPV

Cytochrome P450 3A4 = Cytochrome P450 3A4 (Homo sapiens, UniProt P08684); experiment: Inhibition of CYP3A4; type: ADME
Chain of Cytochrome P450 3A4 (P08684 whole entry): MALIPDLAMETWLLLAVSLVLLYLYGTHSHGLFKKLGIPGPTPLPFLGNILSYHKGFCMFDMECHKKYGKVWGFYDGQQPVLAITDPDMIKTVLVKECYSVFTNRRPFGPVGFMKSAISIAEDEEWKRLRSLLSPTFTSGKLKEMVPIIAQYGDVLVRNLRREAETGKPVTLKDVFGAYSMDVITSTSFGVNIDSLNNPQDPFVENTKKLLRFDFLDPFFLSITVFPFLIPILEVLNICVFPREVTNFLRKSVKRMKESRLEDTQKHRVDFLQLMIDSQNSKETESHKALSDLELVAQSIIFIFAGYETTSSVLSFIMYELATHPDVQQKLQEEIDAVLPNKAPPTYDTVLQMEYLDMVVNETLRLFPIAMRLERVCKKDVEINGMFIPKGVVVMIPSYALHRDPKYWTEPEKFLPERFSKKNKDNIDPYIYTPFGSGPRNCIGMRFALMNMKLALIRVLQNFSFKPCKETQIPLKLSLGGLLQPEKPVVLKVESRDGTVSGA

[1] = target: Glutamate receptor ionotropic, NMDA 2B (Homo sapiens, UniProt Q05586+Q13224); experiment: Displacement of [3H]-Ro256981 from human NR2B receptor
[2] = Antagonist activity at human NR1-NR2A receptor by FLIPR-based Ca2+ flux assay
[3] = Inhibition of alpha1 adrenergic receptor at 10 uM
Homo sapiens = species: Homo sapiens; experiment: Selectivity ratio of human NR2B receptor over human ERG
[4] = target: T2, Glutamate NMDA receptor; GRIN1/GRIN2B (Homo sapiens) (UniProt Q05586+Q13224); experiment: Reversible inhibition of human NR1-NR2B receptor expressed in HEK293T cells assessed as inhibition of glycine-induced response by whole cell voltage clamp electrophysiology assay; type: cell-based; settings: HEK-293T
[5] = target: T2, Glutamate NMDA receptor; GRIN1/GRIN2B (Homo sapiens); experiment: Reversible inhibition of human NR1-NR2B receptor expressed in HEK293T cells assessed as inhibition of glutamate-induced response by whole cell voltage clamp electrophysiology assay; type: cell-based; settings: HEK-293T
Blood = experiment: Drug uptake in rat blood at 3 mg/kg, sc; type: ADME, organism-based; parameters: dose 3 mg/kg, route subcutaneous; settings: in vivo, read-out: Drug uptake
[6] = Ratio of drug level in brain to blood in rat at 3 mg/kg, sc; type: ADME, organism-based; parameters: dose 3 mg/kg, route subcutaneous
[7] = Tmax in rat at 3 mg/kg, sc; type: ADME, organism-based; parameters: dose 3 mg/kg, route subcutaneous; settings: in vivo
[8] = Terminal half life in rat at 3 mg/kg, sc; type: ADME, organism-based; parameters: dose 3 mg/kg, route subcutaneous; settings: in vivo, read-out: beta t1/2 (converted)

| Structure (SMILES) | IC50 [1] [µM] | IC50 [2] [µM] | inhibition [3] [%] | Selectivity ratio (Homo sapiens) | further results |
| --- | --- | --- | --- | --- | --- |
| c1ccc(-c2nc3cccc(CN4CCCCC4)c3[nH]2)cc1 | – | – | – | – | CLH (Liver microsomes): 3.6 mL/min/g; IC50 (Cytochrome P450 2D6): 5 µM; IC50 (Cytochrome P450 1A2): 7 µM; IC50 (Cytochrome P450 2C9): > 50 µM; IC50 (Cytochrome P450 2C19): > 50 µM; IC50 (Cytochrome P450 3A4): > 50 µM |
| CC(C)NCc1c(F)ccc2nc(-c3ccccc3)[nH]c12 | 0.794 | > 50.1 | – | – | – |
| CN1CCN(Cc2c(O)ccc3nc(-c4ccccc4)[nH]c23)CC1 | 0.398 | > 50.1 | – | – | – |
| Fc1ccc2nc(-c3ccccc3)[nH]c2c1CN1CCOCC1 | 2.51 | > 50.1 | – | – | – |
| Oc1ccc2[nH]c(-c3ccccc3)nc2c1CN1CCOCC1 | – | – | < 50 | – | – |
| Oc1ccc2[nH]c(-c3cccc(F)c3F)nc2c1CNCc1ccco1 | – | – | < 50 | > 100 | – |
| Fc1ccc2nc(-c3ccccc3)[nH]c2c1CN1CCCCC1 | 0.0794 | > 50.1 | – | – | – |
| O=C(c1cccc2nc(-c3ccccc3)[nH]c12)N1CCCCC1 | > 10 | > 50.1 | – | – | – |
| Oc1ccc2[nH]cnc2c1CN1CCCCC1 | – | – | < 50 | – | – |
| Oc1ccc2[nH]c(-c3ccccc3)nc2c1CNC1CCCC1 | – | – | < 50 | > 100 | – |
| Oc1ccc2[nH]c(-c3ccccc3)nc2c1CN1CCCC1 | – | – | < 50 | > 100 | – |
| O=C(c1cccc2[nH]c(-c3ccccc3)nc12)N1CCCCC1 | – | – | < 50 | > 100 | inhibition [4]: Active; inhibition [5]: Active |
| CCC1CCCCN1Cc1c(F)ccc2[nH]c(-c3ccccc3)nc12 (stereo not drawn) | – | – | < 50 | > 100 | inhibition [4]: Active; inhibition [5]: Active |
| Oc1ccc2[nH]c(-c3cccc(F)c3F)nc2c1CN1CCCC1 | – | – | < 50 | > 100 | – |
| Oc1ccc2[nH]c(Cc3ccccc3)nc2c1CN1CCCC1 | – | – | < 50 | – | – |
| Fc1ccc2[nH]c(-c3ccccc3)nc2c1CN1CCCCC1 | – | – | < 50 | > 100 | inhibition [4]: Active; inhibition [5]: Active |
| Oc1ccc2nc(-c3cccc(F)c3F)[nH]c2c1CN1CCCC1 | 0.0126 | > 50.1 | – | – | – |
| Fc1ccc2[nH]c(-c3ccccc3)nc2c1CN1CCCC1 | – | – | < 50 | – | inhibition [4]: Active; inhibition [5]: Active |

| Structure (SMILES) | IC50 [1] [µM] | IC50 [2] [µM] | inhibition [3] [%] | Selectivity ratio (Homo sapiens) | further results |
| --- | --- | --- | --- | --- | --- |
| Oc1ccc2nc(-c3cccc(F)c3F)[nH]c2c1CNCc1ccco1 | 0.794 | > 50.1 | – | – | – |
| c1ccc(-c2nc3c(CN4CCCCC4)cccc3[nH]2)cc1 | – | – | < 50 | – | inhibition [4]: Active; inhibition [5]: Active |
| CN1CCN(Cc2c(O)ccc3[nH]c(-c4ccccc4)nc23)CC1 | – | – | < 50 | > 100 | – |
| Fc1ccc2[nH]c(-c3ccccc3)nc2c1CN1CCCCCC1 | 0.2 | > 50.1 | < 50 | > 100 | inhibition [4]: Active; inhibition [5]: Active |
| Oc1ccc2nc(-c3ccccc3)[nH]c2c1CN1CCCC1 | 0.00794 | > 50.1 | – | – | – |
| Oc1ccc2[nH]c(-c3cccc(F)c3F)nc2c1CNCc1cccs1 | – | – | < 50 | – | – |
| CN(C)Cc1c(O)ccc2[nH]c(-c3ccccc3)nc12 | – | – | < 50 | – | – |
| CCC1CCCCN1Cc1c(F)ccc2nc(-c3ccccc3)[nH]c12 (stereo not drawn) | 1 | > 50.1 | – | – | – |
| Oc1ccc2[nH]c(-c3ccccc3)nc2c1CN1CCCCC1 | – | – | < 50 | – | concentration (Blood): 600 nM; CLH (Liver microsomes): 3.9 mL/min/g; IC50 (Cytochrome P450 2D6): 6 µM; IC50 (Cytochrome P450 1A2): 3 µM; Kp [6]: 2.7; Tmax [7]: 48 min; IC50 (Cytochrome P450 2C9): > 30 µM; IC50 (Cytochrome P450 2C19): > 30 µM; IC50 (Cytochrome P450 3A4): > 30 µM; half-life [8]: 66 min |
| Fc1ccc2nc(-c3ccccc3)[nH]c2c1CN1CCCC1 | – | – | – | – | CLH (Liver microsomes): < 0.5 mL/min/g; IC50 (Cytochrome P450 2D6): 5 µM; IC50 (Cytochrome P450 1A2): 16 µM; IC50 (Cytochrome P450 2C9): > 30 µM; IC50 (Cytochrome P450 2C19): > 30 µM; IC50 (Cytochrome P450 3A4): > 30 µM |
| Cc1cccc2[nH]c(-c3ccccc3)nc12 | > 10 | > 50.1 | < 50 | > 100 | inhibition [4]: Active; inhibition [5]: Active |
| Fc1ccc2[nH]c(-c3ccccc3)nc2c1CN1CCOCC1 | – | – | < 50 | > 100 | inhibition [4]: Active; inhibition [5]: Active |
| CCCNCc1c(O)ccc2[nH]c(-c3ccccc3)nc12 | – | – | < 50 | – | – |
| CC(C)NCc1c(F)ccc2[nH]c(-c3ccccc3)nc12 | – | – | < 50 | > 100 | inhibition [4]: Active; inhibition [5]: Active |
| Oc1ccc2[nH]c(-c3ccccc3)nc2c1CN1CCCCCC1 | 0.00794 | > 50.1 | < 50 | > 100 | – |
| Cc1ccc(-c2nc3c(CNC4CC4)c(O)ccc3[nH]2)cc1 | 0.0398 | > 50.1 | < 50 | > 100 | – |
| Oc1ccc2nc(-c3ccccc3)[nH]c2c1CNC1CCCC1 | 0.0316 | > 50.1 | – | – | – |
| Oc1ccc2[nH]c(-c3ccccc3)nc2c1CN1CCC(c2ccccc2)CC1 | 0.0794 | > 50.1 | – | > 100 | – |
